The structures appear in SMILES notation.

In the assay the target is T1, cMET receptor tyrosine kinase (GST-cMET (969-1390)) (Homo sapiens, UniProt P08581).
T1 construct: made in house
T1 sequence (P08581 969-1390): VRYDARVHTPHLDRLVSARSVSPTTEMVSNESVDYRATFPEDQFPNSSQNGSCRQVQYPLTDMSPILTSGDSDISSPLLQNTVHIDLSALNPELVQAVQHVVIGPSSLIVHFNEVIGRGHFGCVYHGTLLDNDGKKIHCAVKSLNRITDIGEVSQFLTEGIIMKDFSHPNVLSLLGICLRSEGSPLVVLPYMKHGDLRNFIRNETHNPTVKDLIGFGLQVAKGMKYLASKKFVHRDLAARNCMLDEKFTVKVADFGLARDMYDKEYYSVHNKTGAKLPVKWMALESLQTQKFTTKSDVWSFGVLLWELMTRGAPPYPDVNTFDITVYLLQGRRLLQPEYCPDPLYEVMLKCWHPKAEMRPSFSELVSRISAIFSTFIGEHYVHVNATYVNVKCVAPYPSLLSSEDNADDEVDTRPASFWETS
Briefly: EPK cMET profiling assay (LanthaScreen TR-FRET antibody based kinase phosphorylation assay). It counts as biochemical. Particulars: purified recombinant GST-cMET (969-1390), 2 μM ATP, 50 nM Fluorescein-PolyEAY, 60 minutes at room temperature; read-out: c-Met IC50. On the procedure: A number of compounds of the present invention were assayed in an antibody based kinase phosphorylation assay as follows.
EPK cMET Profiling Assay:
The EPK kinase assay for cMET receptor tyrosine kinase was developed, using the purified recombinant GST-fusion protein, containing the cytoplasmic domain of the enzyme. GST-cMET (969-1390) was purified by affinity chromatography.
The kinase assay is based on the LanthaScreen™ technology. LanthaScreen™ is the detection of Time-Resolved Fluorescence Resonance Energy Transfer (TR-FRET) using lanthanide chelates to measure interactions between various binding partners. In a TR-FRET kinase assay, a long-lifetime lanthanide donor species is conjugated to an antibody that specifically binds to a phosphorylated product of a kinase reaction that is labeled with a suitable acceptor fluorophore. This antibody-mediated interaction brings the lanthanide donor and the acceptor into proximity such that resonance energy transfer can take place, resulting in a detectible increase in the FRET signal.
The kinase reactions were performed in 384 well microtiter plates in a total reaction volume of 9.05 μL. The assay plates were prepared with 0.05 μL per well of test compound in the appropriate test concentration, as described under “preparation of compound dilutions”. The reactions were started by combining 4.5 μL of ATP solution with 4.5 μL of enzyme-substrate mix (consisting of kinase and substrate). The final concentrations in the kinase reactions were 35 mM Tris/HCl, 1 mM DTT, 0.025% Tween20, 10 μM sodium orthovanadate, 0.25% BSA, 0.6% DMSO, 10 mM MgCl2, 3 mM MnCl2, 2 μM ATP, 50 nM Fluorescein-PolyEAY, and 0.3 nM enzyme.
The reactions were incubated for 60 minutes at room temperature and stopped by adding 4.5 μL of stop buffer (50 mM EDTA, 0.04% NP40, 20 mM Tris/HCl).
Subsequently 4.5 μL of detection mix (50 mM Tris/HCl, 2 mM DTT, 0.05% Tween20, 20 μM sodium orthovanadate, 1% BSA, 1.72 μg/ml Tb-PY20 antibody) were added to the stopped reactions. After 30 minutes incubation at room temperature, the plates were measured in a BMG Pherastar fluorescence reader. The effect of compound on the enzymatic activity was in all assays obtained from the linear progress curves and determined from one reading (end point measurement).
Test compounds were dissolved in DMSO (10 mM) and transferred into 1.4 mL flat bottom or V-shaped Matrix tubes carrying a unique 2D matrix. The stock solutions were stored at −20° C. if not used immediately. For the test procedure the vials were defrosted and identified by a scanner whereby a working sheet was generated that guided the subsequent working steps.
Compound dilutions were made in 96 well plates. This format enabled the assay of maximally 40 individual test compounds at 8 concentrations (single points) including 4 reference compounds. The dilution protocol included the production of “pre-dilution plates”, “master plates” and “assay plates”.
Pre-dilution plates: 96 polypropylene well plates were used as pre-dilution plates. A total of 4 pre-dilution plates were prepared including 10 test compounds each on the plate positions A1-A10, one standard compound at A11 and one DMSO control at A12. All dilution steps were done on a HamiltonSTAR robot.
Master plates: 100 μL of individual compound dilutions including standard compound and controls of the 4 “pre-dilution plates” were transferred into a 384 “master plate” including the following concentrations 1,820, […], 182, 54.6, 18.2, 5.46, 1.82 and 0.546 μM, respectively in 90% of DMSO.
Assay plates: Identical “assay plates” were then prepared by pipetting 50 nL each of compound dilutions of the “master plates” into 384-well “assay plates” by means of a HummingBird 384-channel dispenser. These plates were used directly for the assay which was performed in a total volume of 9.05 μL. This led to a final compound concentration of 10, 3.0, 1.0, 0.3, 0.1, 0.03, 0.01 and 0.003 μM and a final DMSO concentration of 0.5% in the assay.
With `CCn1cc(-c2ccc3ncc(C(O)c4cc5cccnc5cc4F)n3n2)cn1` (racemic) [Example 249, (rac)-[6-(1-Ethyl-1H-pyrazol-4-yl)-imidazo[1,2-b]pyridazin-3-yl]-(7-fluoro-quinolin-6-yl)methanol], the IC50 was found to be 380 nM.
The value for `OC(c1cc2cccnc2cc1F)c1cnc2ccc(-c3cn[nH]c3)nn12` (racemic) [Example 252, (rac)-(7-Fluoro-quinolin-6-yl)-[6-(1H-pyrazol-4-yl)-imidazo[1,2-b]pyridazin-3-yl]-methanol] was 280 nM; that for `CC(c1cc2cccnc2cc1F)c1cnc2ccc(-c3cnn(C)c3)nn12` (racemic) [Example 253, (rac)-7-Fluoro-6-{1-[6-(1-methyl-1H-pyrazol-4-yl)-imidazo[1,2-b]pyridazin-3-yl]-ethyl}-quinoline] was 13 nM.
Then `CC(c1cc2cccnc2cc1F)c1cnc2ccc(-c3cnn(CCO)c3)nn12` (racemic) [Example 255], with 36 nM; and `CC(c1cc2cccnc2cc1F)c1cnc2ccc(-c3cnn(C4CCNCC4)c3)nn12` (racemic) [Example 258, (rac)-7-Fluoro-6-{1-[6-(1-piperidin-4-yl-1H-pyrazol-4-yl)-imidazo[1,2-b]pyridazin-3-yl]-ethyl}-quinoline], with 43 nM.
The value for `CC(c1cc2cccnc2cc1F)c1cnc2ccc(-c3cnn(C4CCN(C)CC4)c3)nn12` (racemic) [Example 259, (rac)-7-Fluoro-6-(1-{6-[1-(1-methyl-piperidin-4-yl)-1H-pyrazol-4-yl]-imidazo[1,2-b]pyridazin-3-yl}-ethyl)-quinoline] was 23 nM; that for `CNC1CCN(c2ccc3ncc(Cc4cc5cccnc5cc4F)n3n2)C1` (racemic) [Example 260, (rac)-{1-[3-(7-fluoro-quinolin-6-ylmethyl)-imidazo[1,2-b]pyridazin-6-yl]-pyrrolidin-3-yl}-methylamine] was 5.2 nM.
Take `CC(O)(c1c(F)cc2ncccc2c1F)c1cnc2ccc(-c3cnn(CCO)c3)nn12` (racemic) [Example 267, (rac)-1-(5,7-Difluoro-quinolin-6-yl)-1-{6-[1-(2-hydroxy-ethyl)-1H-pyrazol-4-yl]-imidazo[1,2-b]pyridazin-3-yl}-ethanol]: the IC50 was found to be 260 nM.
Then `CC(c1cc2cnn(C)c2cc1F)c1cnc2ccc(-c3cnn(C)c3)nn12` (racemic) [Example 278, (rac)-3-[1-(6-Fluoro-1-methyl-1H-indazol-5-yl)-ethyl]-6-(1-methyl-1H-pyrazol-4-yl)-imidazo[1,2-b]pyridazine], with 21 nM; and `CC(c1cc2cnn(C)c2cc1F)c1cnc2ccc(-c3cnn(CCO)c3)nn12` (racemic) [Example 279, (rac)-2-(4-{3-[1-(6-Fluoro-1-methyl-1H-indazol-5-yl)-ethyl]-imidazo[1,2-b]pyridazin-6-yl}-pyrazol-1-yl)-ethanol], with 15 nM; and `CC(c1ccc2nccn2c1)c1cnc2ccc(Cl)nn12` (racemic) [Example 292, (rac)-6-Chloro-3-(1-imidazo[1,2-a]pyridin-6-yl-ethyl)-imidazo[1,2-b]pyridazine], with 80 nM.
The value for `CC(c1ccc2nccn2c1)c1cnc2ccc(-c3cnn(C)c3)nn12` (racemic) [Example 293, (rac)-3-(1-Imidazo[1,2-a]pyridin-6-yl-ethyl)-6-(1-methyl-1H-pyrazol-4-yl)-imidazo[1,2-b]pyridazine] was 23 nM.
The value for `Cc1cccc(-c2ccc3ncc(C(C)c4ccc5nccn5c4)n3n2)c1` (racemic) [Example 308, (rac)-3-(1-Imidazo[1,2-a]pyridin-6-yl-ethyl)-6-m-tolyl-imidazo[1,2-b]pyridazine] was 82 nM.
Take `CC(c1ccc2ncc(Br)n2c1)c1cnc2ccc(-c3cnn(C)c3)nn12` (racemic) [Example 309, (rac)-3-[1-(3-Bromo-imidazo[1,2-a]pyridin-6-yl)-ethyl]-6-(1-methyl-1H-pyrazol-4-yl)imidazo[1,2-b]pyridazine]: the IC50 worked out at 16 nM.
The value for `CC(c1ccc2ncc(Br)n2c1)c1cnc2ccc(-c3cnn(CCO)c3)nn12` (racemic) [Example 310, (rac)-2-(4-{3-[1-(3-Bromo-imidazo[1,2-a]pyridin-6-yl)-ethyl]-imidazo[1,2-b]pyridazin-6-yl}-pyrazol-1-yl)-ethanol] was 10 nM.
Then `Cn1cc(-c2ccc3ncc(Cc4ccc5ncccc5c4)n3n2)cn1` [Example 2, 6-[6-(1-Methyl-1H-pyrazol-4-yl)-imidazo[1,2-b]pyridazin-3-ylmethyl]-quinoline], with 14 nM; and `COc1ccc(Cc2cnc3ccc(-c4cnn(C)c4)nn23)cc1` [Example 4, 3-(4-methoxy-benzyl)-6-(1-methyl-1H-pyrazol-4-yl)-imidazo[1,2-b]pyridazine], with 280 nM; and `Cn1cc(-c2ccc3ncc(Cc4ccc(O)cc4)n3n2)cn1` [Example 5, 4-[6-(1-Methyl-1H-pyrazol-4-yl)-imidazo[1,2-b]pyridazin-3-ylmethyl]-phenol], with 53 nM.
Then `Cn1cc(-c2ccc3ncc(C(F)(F)c4ccc5ncccc5c4)n3n2)cn1` [Example 6, 6-{Difluoro-[6-(1-methyl-1H-pyrazol-4-yl)-imidazo[1,2-b]pyridazin-3-yl]-methyl}-quinoline], with 14 nM; and `c1cnc2ccc(Cc3cnc4ccc(-c5cnn(C6CCNCC6)c5)nn34)cc2c1` [Example 7, 6-[6-(1-piperidin-4-yl-1H-pyrazol-4-yl)-imidazo[1,2-b]pyridazin-3-ylmethyl]-quinoline], with 50 nM.
For `Cn1cc(-c2ccc3ncc(Cc4ccc5occc5c4)n3n2)cn1` [Example 8, 3-Benzofuran-5-ylmethyl-6-(1-methyl-1H-pyrazol-4-yl)-imidazo[1,2-b]pyridazine], the IC50 came out at 270 nM.
Then `Cn1cc(-c2ccc3ncc(Cc4ccc5nccn5c4)n3n2)cn1` [Example 10, 3-Imidazo[1,2-a]pyridin-6-ylmethyl-6-(1-methyl-1H-pyrazol-4-yl)-imidazo[1,2-b]pyridazine], with 21.5 nM.
Then `Cn1cc(-c2ccc3ncc(Cc4ccc5ncsc5c4)n3n2)cn1` [Example 12, 3-Benzothiazol-6-ylmethyl-6-(1-methyl-1H-pyrazol-4-yl)-imidazo[1,2-b]pyridazine], with 32.5 nM.
Take `Cc1nc2ccc(Cc3cnc4ccc(-c5cnn(C)c5)nn34)cc2s1` [Example 13, 3-(2-Methyl-benzothiazol-6-ylmethyl)-6-(1-methyl-1H-pyrazol-4-yl)-imidazo[1,2-b]pyridazine]: the IC50 was 73.5 nM.
In the case of `NC(=O)c1ccc(-c2ccc3ncc(Cc4ccc5ncccc5c4)n3n2)cc1Cl` [Example 15, 2-Chloro-4-(3-quinolin-6-ylmethyl-imidazo[1,2-b]pyridazin-6-yl)-benzamide], the IC50 was 9.5 nM.
Then `Cc1ccc(-c2ccc3ncc(Cc4ccc5ncccc5c4)n3n2)cc1` [Example 16, 6-(6-p-Tolyl-imidazo[1,2-b]pyridazin-3-ylmethyl)-quinoline], with 94.5 nM; and `c1ccc2cc(-c3ccc4ncc(Cc5ccc6ncccc6c5)n4n3)ccc2c1` [Example 17, 6-(6-Naphthalen-2-yl-imidazo[1,2-b]pyridazin-3-ylmethyl)-quinoline], with 210 nM.

These data come from US8822468B2 (Novartis AG, priority 2008, dated 2014).
